# Conditions: buffer; pH 7.4; 200.0 µM
row,SMILES,solubility kinetic [µg/mL]
1,S=C(Nc1ccc2c(c1)OCO2)Nc1ccccc1Cl,32.5
2,CN1CCCC(OC(=O)c2cccc(Br)c2)C1.Cl (stereo unspecified),> 50.2
3,N#Cc1ccsc1NC(=O)CN1CCOCC1,28.6
4,Oc1ccc(-c2csc(Nc3ccccn3)n2)cc1O,11.3
5,CCOC(=O)c1ccc(CSC(=N)N)o1,31.4
6,Cc1ccc(OCC(O)CNC2CCCC2)cc1C.Cl (stereo unspecified),> 45
7,Cc1ccc(NC(=O)CN2CCc3ccccc3C2)cc1C,18.8
8,Cc1ccc(OCC(=O)NCC2CCCO2)c(C)c1 (stereo unspecified),> 39.5
9,Cn1cccc1-c1nc2ccc([N+](=O)[O-])cc2[nH]1,15.2
10,COc1ccc(NC(=O)c2oc3ccccc3c2CSC)cc1S(=O)(=O)N1CCOCC1,3.8
11,Cc1cccc(OCC(O)CN2CCOCC2)c1.Cl (stereo unspecified),> 43.2
12,O=C(Nc1ccc(Br)cc1)Nc1cnccn1,3
13,CC(=O)N/C(=N/c1nc(C)cc(C)n1)Nc1ccc(C)cc1C,3.4
14,N#Cc1ccc(OCC(=O)Nc2ccncc2)cc1,36
15,Cl.O=C(CNCc1ccccc1)NC1C2CC3CC(C2)CC1C3 (stereo unspecified),50.2
16,N#Cc1ccc(CSc2nc(N)cc(N)n2)cc1,37.3
17,Cc1cc(C)c(NC(=O)CN2C(=O)NC3(CCc4ccccc43)C2=O)c(Cl)c1 (stereo unspecified),33.1
18,O=C(NC(=S)N1CCCCCC1)c1ccccc1,> 39.4
19,CC(=O)Nc1ccc2c3c(cccc13)C(=O)N(c1ccccc1)C2=O,2.3
20,COc1ccc(Nc2cc(Nc3ccccc3)ncn2)cc1,< 0.2
21,O=C1CSC(c2ccc(F)c(F)c2)N1c1ccccc1F (stereo unspecified),38.3

row,SMILES,solubility kinetic [µg/mL]
1,O=C(c1ccccc1)c1ccccc1N=Cc1c(O)[nH]c(=O)[nH]c1=O,3.8
2,CC1(/[N+]([O-])=C/c2cccc(Cl)c2)CCCCC1=O (stereo unspecified),36.2
3,NS(=O)(=O)c1ccc(CCNC(=O)Cc2ccc(Cl)cc2)cc1,> 52.9
4,COC(=O)Cn1c(=O)c(C)nc2ccccc21,> 34.8
5,Oc1cccc(/C=C/c2ccc3cccc(O)c3n2)c1,2.3
6,CC(NCCc1ccc(O)cc1)C(O)c1ccc(O)cc1.Cl (stereo unspecified),> 48.6
7,Cc1cc(Br)cc2c1N(C)C(=O)C2(c1ccc(O)cc1)c1ccc(O)cc1,7.4
8,Cc1onc(-c2ccccc2)c1CNS(=O)(=O)c1ccc(F)cc1F,51.6
9,O=C(/C=C/Nc1ccc(S(=O)(=O)Nc2ncccn2)cc1)c1ccc2ccccc2c1,2
10,Oc1c(CN2CCCC(C(F)(F)F)C2)cc(Cl)c2ccccc12 (stereo unspecified),4.1
11,COc1ccc(S(=O)(=O)n2c([N+](=O)[O-])cnc2C)c(C)c1C,45.2
12,Cc1ccccc1NC(=S)N/N=C/c1ccc(O)cc1O,> 45.2
13,CCS(=O)c1scc(-c2ccc(Cl)cc2)c1C#N (stereo unspecified),20.9
14,COc1ccc(NC(=O)COC(=O)c2cc(S(=O)(=O)N3CCCC3)ccc2O)cc1,> 65.2
15,Cc1ccc(C(=O)NC(=S)NCc2ccccc2)cc1Br,0.4
16,O=C(COC(=O)/C=C/c1cc(Br)ccc1F)NC1CC1,7
17,O=S(=O)(NCC1CC1)c1cc(Cl)cc(Cl)c1,10.2
18,COC(=O)c1ccccc1NC(=O)COC(=O)[C@H](C)NC(N)=O,> 48.5
19,O=C(NC(=S)NCc1ccccc1)c1cccc(Cl)c1,< 0.3
20,Brc1ccc(OCCN2CCOCC2)cc1,29
21,CC1=[N+](C)N(c2ccccc2)C(=O)C1N=C/C=C/c1ccccc1 (stereo unspecified),> 47.8

row,SMILES,solubility kinetic [µg/mL]
1,Cc1ccc2ccccc2c1NC(=O)c1ccco1,> 37.7
2,CN(c1ccccc1)S(=O)(=O)c1cccc(NC(=O)C2CCCO2)c1 (stereo unspecified),> 54.1
3,N#Cc1ccc(CN2CCN(C(=O)C3CC(=O)N(c4ccccc4F)C3)CC2)cc1 (stereo unspecified),> 61
4,O=C(Cc1ccccc1)N/N=C/c1ccc[nH]1,> 34.1
5,COc1ccc(NC(=O)c2sccc2-n2cccc2)cc1,3.4
6,COC(=O)c1c(C(=O)OC)c(-c2ccc(F)cc2)n2c1CS(=O)C2 (stereo unspecified),> 52.7
7,Cc1ccccc1CNC(=O)c1ccc2ccccc2n1,9.2
8,CC(C)OC(=O)Cc1nc2sc(-c3ccccc3)cc2c(=O)[nH]1,2
9,COc1ccccc1C1CCN(Cc2ccc(C)cc2)CC1,29.8
10,Cc1ccccc1NC(=O)c1c([N+](=O)[O-])cnn1C,> 39
11,COc1nc(-c2ccc(Cl)cc2Cl)nc2ccccc12,< 0.3
12,Cc1cc(C)c(C(=O)Nc2cccc(F)c2)c(Cl)n1,> 41.8
13,CCCCCSc1ncccc1C(=O)O,> 33.8
14,CCOc1ccccc1NC(=O)COc1cccnc1[N+](=O)[O-],7.5
15,COc1ccc(NC(=S)Nc2ccc3nccnc3c2)cc1,22.8
16,Cc1nonc1C(=O)N1CCCC(Nc2ccc(C(C)C)cc2)C1 (stereo unspecified),32.8
17,COc1cccc(-c2noc(CCCC(=O)N3CCOCC3)n2)c1,> 49.7
18,C=CCN(CC=C)C(=S)Nc1cc(Cl)ccc1OC,> 44.5
19,Cc1ccc(/C=N/NC(=O)c2cccnc2)o1,> 34.4
